Converted amounts (≈) assume the structure as drawn. Where two headings read alike, the source gives them in different places.
Assays:
[1] = tested on: Aspergillus niger (ATCC16404); experiment: Minimum inhibiting concentration (MIC), agar plate method; type: cell-based
Procedure: (§1) Using the agar plate method, for bacteria, the following various bacteria were inoculated in SCD agar media (made by Eiken) containing 3-hexine-2,5-diol in different concentrations and cultured at 30° C. for 24 hours. […] Further, for fungi, the following various bacteria were inoculated in a potato dextrose agar media containing 3-hexine-2,5-diol in different concentrations and cultured at 25° C. for 48 hours. […] The same was conducted for methyl paraoxybenzoate methyl. The results of the judgment are shown in Table 1 based on the following evaluation criteria:
as §1, with “III-1” for “1”
as §1, with “media containing the test compound, in different” for “media containing 3-hexine-2,5-diol in different”, “in Table VII-1 based on” for “in Table 1 based on”, “evaluation criteria: […]” for “evaluation criteria:”

[2] = tested on: Candida albicans (ATCC10231); experiment: as above; type: cell-based
Procedure: as §1
as §1, with “III-1” for “1”
as §1, with “media containing the test compound, in different” for “media containing 3-hexine-2,5-diol in different”, “in Table VII-1 based on” for “in Table 1 based on”, “evaluation criteria: […]” for “evaluation criteria:”

[3] = tested on: Escherichia coli (ATCC8739); experiment: as above; type: cell-based
Procedure: as §1
as §1, with “III-1” for “1”
as §1, with “media containing the test compound, in different” for “media containing 3-hexine-2,5-diol in different”, “in Table VII-1 based on” for “in Table 1 based on”, “evaluation criteria: […]” for “evaluation criteria:”

[4] = tested on: Pseudomonas aeuginosa (ATCC15442); experiment: as above; type: cell-based
Procedure: as §1
as §1, with “III-1” for “1”
as §1, with “media containing the test compound, in different” for “media containing 3-hexine-2,5-diol in different”, “in Table VII-1 based on” for “in Table 1 based on”, “evaluation criteria: […]” for “evaluation criteria:”

[5] = tested on: Staphylococcus aureus (ATCC6538); experiment: as above; type: cell-based
Procedure: as §1
as §1, with “III-1” for “1”
as §1, with “media containing the test compound, in different” for “media containing 3-hexine-2,5-diol in different”, “in Table VII-1 based on” for “in Table 1 based on”, “evaluation criteria: […]” for “evaluation criteria:”

[6] = in vivo
Procedure: (§2) The 3-hexine-2,5-diol of the present invention was tested for safety.
(§3) The glycerol derivatives of the present invention i.e., 3-phenoxy-1,2-propane diol and 3-benzyloxy-1,2-propane diol, were tested for safety.
(§4) The 2,2-dimethyl-1-phenyl-1,3-propanediol of the present invention was tested for safety.

[7] = in vivo; remark: listed apart in the source
Procedure: as §2, §3, §4

[8] = in vivo; remark: listed apart in the source
Procedure: as §2, §3, §4

[9] = Genetic toxicity test
Procedure: as §2, §3, §4

[10] = Skin sensitization test; details: in vivo
Procedure: as §2, §3, §4

[11] = Primary skin irritation test; details: in vivo
Procedure: as §2, §3, §4

[12] = Continuous skin irritation test; details: in vivo
Procedure: as §2, §3, §4

[13] = Aspergillus niger (ATCC16404), read-out: Antimicrobial effect (minimum inhibiting concentration rank)
[14] = Candida albicans (ATCC10231), read-out: Antimicrobial effect (minimum inhibiting concentration rank)
[15] = Escherichia coli (ATCC8739), read-out: Antimicrobial effect (minimum inhibiting concentration rank)
[16] = Pseudomonas aeuginosa (ATCC15442), read-out: Antimicrobial effect (minimum inhibiting concentration rank)
[17] = Staphylococcus aureus (ATCC6538), read-out: Antimicrobial effect (minimum inhibiting concentration rank)
[18] = Table I-1, potato dextrose agar media, 25° C., 48 hours
[19] = Table I-1, SCD agar media, 30° C., 24 hours
[20] = Table III-1, potato dextrose agar media, 25° C., 48 hours
[21] = Table III-1, SCD agar media, 30° C., 24 hours

Compound: CC(C)(CO)C(O)c1ccccc1 (stereo not drawn)
- MIC [1, 13]: < 1000 µg/mL
- MIC [2, 14]: < 1000 µg/mL
- MIC [3, 15]: < 1000 µg/mL
- MIC [4, 16]: < 1000 µg/mL
- MIC [5, 17]: < 1000 µg/mL
- toxicity (single administration toxicity test) (single administration): extremely weak
- skin irritability (primary skin irritation test) [6]: extremely weak
- skin irritability (continuous skin irritation test) [7]: extremely weak
- skin sensitization test result [8]: negative

Compound: OCC(O)COCc1ccccc1 (stereo not drawn) [3-Benzyloxy-1,2-propane diol, 3-benzyloxy-1,2-propanediol]
- MIC ([1]; Aspergillus niger, ATCC16404, Table III-1, potato dextrose agar media, 25° C., 48 hours, read-out: Antimicrobial effect: minimum inhibiting concentration (MIC)): < 1000 µg/mL
- MIC ([2]; Candida albicans, ATCC10231, Table III-1, potato dextrose agar media, 25° C., 48 hours, read-out: Antimicrobial effect: minimum inhibiting concentration (MIC)): < 1000 µg/mL
- MIC ([3]; Escherichia coli, ATCC8739, Table III-1, SCD agar media, 30° C., 24 hours, read-out: Antimicrobial effect: minimum inhibiting concentration (MIC)): < 1000 µg/mL
- MIC ([4]; Pseudomonas, ATCC15442, Table III-1, SCD agar media, 30° C., 24 hours, read-out: Antimicrobial effect: minimum inhibiting concentration (MIC)): < 1000 µg/mL
- MIC ([5]; Staphylococcus aureus, ATCC6538, Table III-1, SCD agar media, 30° C., 24 hours, read-out: Antimicrobial effect: minimum inhibiting concentration (MIC)): < 1000 µg/mL
- toxicity (single administration toxicity test) (single administration): extremely weak
- skin irritability (primary skin irritation test) [6]: extremely weak
- skin irritability (continuous skin irritation test) [7]: extremely weak
- skin sensitization test result [8]: negative

Compound: OCC(O)COc1ccccc1 (stereo not drawn) [3-Phenoxy-1,2-propane diol, 3-phenoxy-1,2-propanediol]
- MIC ([1]; Aspergillus niger, ATCC16404, 48 h, read-out: Antimicrobial effect: minimum inhibiting concentration (MIC)): < 1000 µg/mL
- MIC ([2]; Candida albicans, ATCC10231, 48 h, read-out: Antimicrobial effect: minimum inhibiting concentration (MIC)): < 1000 µg/mL
- MIC ([3]; Escherichia coli, ATCC8739, 24 h, read-out: Antimicrobial effect: minimum inhibiting concentration (MIC)): < 1000 µg/mL
- MIC ([4]; Pseudomonas, ATCC15442, 24 h, read-out: Antimicrobial effect: minimum inhibiting concentration (MIC)): < 1000 µg/mL
- MIC ([5]; Staphylococcus aureus, ATCC6538, 24 h, read-out: Antimicrobial effect: minimum inhibiting concentration (MIC)): < 1000 µg/mL
- toxicity (single administration toxicity test) (in vivo): extremely weak
- skin irritability (primary skin irritation test) [6]: extremely weak
- skin irritability (continuous skin irritation test) [7]: extremely weak
- skin sensitization test result [8]: negative

Compound: CC(O)C#CC(C)O (stereo not drawn) [3-hexine-2,5-diol]
- Antimicrobial effect: minimum inhibiting concentration (MIC) [1, 18]: A (Minimum inhibiting concentration of less than 1000 ppm)
- Antimicrobial effect: minimum inhibiting concentration (MIC) [2, 18]: A (Minimum inhibiting concentration of less than 1000 ppm)
- Antimicrobial effect: minimum inhibiting concentration (MIC) [3, 19]: A (Minimum inhibiting concentration of less than 1000 ppm)
- Antimicrobial effect: minimum inhibiting concentration (MIC) [4, 19]: A (Minimum inhibiting concentration of less than 1000 ppm)
- Antimicrobial effect: minimum inhibiting concentration (MIC) [5, 19]: A (Minimum inhibiting concentration of less than 1000 ppm)
- toxicity (single administration toxicity test) (single administration): extremely weak
- genetic toxicity test result [9]: negative
- skin sensitization test result [10]: negative
- skin irritability (primary skin irritation test) [11]: extremely weak
- skin irritability (continuous skin irritation test) [12]: extremely weak

Compound: COC(=O)c1ccc(O)cc1 [Methyl paraoxybenzoate, reference compound]
- MIC ([1]; Aspergillus niger (ATCC16404), read-out: Antimicrobial effect (minimum inhibiting concentration class)): 1000 to 5000 µg/mL (≈ 6.57 to 32.9 mM)
- MIC [1, 13]: 1000 to 5000 µg/mL (≈ 6.57 to 32.9 mM)
- MIC ([1]; Aspergillus niger, ATCC16404, Table I-1, potato dextrose agar media, 25° C., 48 hours, read-out: Antimicrobial effect: minimum inhibiting concentration (MIC)): 1000 to 5000 µg/mL (≈ 6.57 to 32.9 mM)
- Antimicrobial effect: minimum inhibiting concentration (MIC) [1, 20]: B (Minimum inhibiting concentration of 1000 ppm to less than 5000 ppm)
- MIC ([2]; Candida albicans (ATCC10231), read-out: Antimicrobial effect (minimum inhibiting concentration class)): 1000 to 5000 µg/mL (≈ 6.57 to 32.9 mM)
- MIC [2, 14]: 1000 to 5000 µg/mL (≈ 6.57 to 32.9 mM)
- MIC ([2]; Candida albicans, ATCC10231, Table I-1, potato dextrose agar media, 25° C., 48 hours, read-out: Antimicrobial effect: minimum inhibiting concentration (MIC)): 1000 to 5000 µg/mL (≈ 6.57 to 32.9 mM)
- Antimicrobial effect: minimum inhibiting concentration (MIC) [2, 20]: B (Minimum inhibiting concentration of 1000 ppm to less than 5000 ppm)
- MIC ([3]; Escherichia coli (ATCC8739), read-out: Antimicrobial effect (minimum inhibiting concentration class)): 1000 to 5000 µg/mL (≈ 6.57 to 32.9 mM)
- MIC [3, 15]: 1000 to 5000 µg/mL (≈ 6.57 to 32.9 mM)
- MIC ([3]; Escherichia coli, ATCC8739, Table I-1, SCD agar media, 30° C., 24 hours, read-out: Antimicrobial effect: minimum inhibiting concentration (MIC)): 1000 to 5000 µg/mL (≈ 6.57 to 32.9 mM)
- Antimicrobial effect: minimum inhibiting concentration (MIC) [3, 21]: B (Minimum inhibiting concentration of 1000 ppm to less than 5000 ppm)
- MIC ([4]; Pseudomonas aeuginosa (ATCC15442), read-out: Antimicrobial effect (minimum inhibiting concentration class)): 5000 to 10000 µg/mL (≈ 32.9 to 65.7 mM)
- MIC [4, 16]: 5000 to 10000 µg/mL (≈ 32.9 to 65.7 mM)
- MIC ([4]; Pseudomonas, ATCC15442, Table I-1, SCD agar media, 30° C., 24 hours, read-out: Antimicrobial effect: minimum inhibiting concentration (MIC)): 5000 to 10000 µg/mL (≈ 32.9 to 65.7 mM)
- Antimicrobial effect: minimum inhibiting concentration (MIC) [4, 21]: C (Minimum inhibiting concentration of 5000 ppm to less than 10000 ppm)
- MIC ([5]; Staphylococcus aureus (ATCC6538), read-out: Antimicrobial effect (minimum inhibiting concentration class)): 1000 to 5000 µg/mL (≈ 6.57 to 32.9 mM)
- MIC [5, 17]: 1000 to 5000 µg/mL (≈ 6.57 to 32.9 mM)
- MIC ([5]; Staphylococcus aureus, ATCC6538, Table I-1, SCD agar media, 30° C., 24 hours, read-out: Antimicrobial effect: minimum inhibiting concentration (MIC)): 1000 to 5000 µg/mL (≈ 6.57 to 32.9 mM)
- Antimicrobial effect: minimum inhibiting concentration (MIC) [5, 21]: B (Minimum inhibiting concentration of 1000 ppm to less than 5000 ppm)

Source: patent US20060257436A1, “Skin preparation composition for external use” (Shiseido Company, Ltd., priority 2003, published 2006)
